In patent publication US6844353B2, “Fungicidal properties of sampangine and its analogs to agriculturally important fungal plant pathogens” (The United States of America as represented by the …, priority 2003, dated 2005):
Like-named read-outs stand apart in the source and are kept apart here.

Key:
B. cinerea = experiment: 96-well microtiter plate assay, fungal growth inhibition; format: cell-based, Botrytis cinerea; settings: Botrytis cinerea, B. cinerea, read-out: Percent inhibition−Percent Stimulation±SEM
C. gloeosporioides = experiment: as above; format: cell-based, Colletotrichum gloeosporioides; settings: Colletotrichum gloeosporioides, C. gloeosporioides, read-out: Percent inhibition−Percent Stimulation±SEM
[1] = tested on: C. fragariae isolate CF-75; experiment: Detached strawberry leaf assay; format: in vivo, Colletotrichum fragariae; settings: detached strawberry leaves (cultivar Chandler), five days after application
Excerpt: Strawberry plants of the cultivar Chandler were maintained in a warm greenhouse under conditions suitable for optimum vegetative growth. The youngest fully expanded leaf with the entire petiole from each plant was collected. The petiole of each leaf was inserted into a small test tube (10×4 mm) and filled with sterile distilled water. The left leaflet of each leaf was inoculated with C. fragariae isolate CF-75 (1.5×10^6 conidia/ml) using a hand pump sprayer. The inoculated leaves were placed in a dew chamber and incubated overnight at 30° C. and 100% relative humidity, removed from the dew chamber and allowed to dry. The test compound was applied using a chromatography sprayer until the upper surface of each leaflet was coated. After allowing the leaves to air dry for 2 hours, the right leaflet of each leaf was inoculated with C. fragariae isolate CF-75. The leaves were incubated in the dew chamber at 30° C. and 100% relative humidity for 48 hours. The leaves were then removed from the dew chamber and held in a moist chamber for 3 days (total of five days since test compounds were applied). The number of lesions on each leaflet were then counted.

F. oxysporum = experiment: 96-well microtiter plate assay, fungal growth inhibition; format: cell-based, Fusarium oxysporum; settings: Fusarium oxysporum, F. oxysporum, read-out: Percent inhibition−Percent Stimulation±SEM
How it was run: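 Conidia (1.0×10^6 conidia/mL suspension) were challenged in broth with compounds at 0.3, 3.0 and 30.0 μM in duplicate, at 24±1° C with a 12 h photoperiod. Growth was read as absorbance at 620 nm at 46 and 72 h (120 h for Phomopsis species), with mean absorbance used to judge inhibition.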

C. acutatum = experiment: as above; format: cell-based, Colletotrichum acutatum; settings: Colletotrichum acutatum, C. acutatum, read-out: Percent inhibition−Percent Stimulation±SEM
C. fragariae = experiment: as above; format: cell-based, Colletotrichum fragariae; settings: Colletotrichum fragariae, C. fragariae, read-out: Percent inhibition−Percent Stimulation±SEM

`O=C1c2ccccc2-c2nccc3ccnc1c23` [Sampangine] was tested, and the inhibition at 0.3 µM (B. cinerea; 48 hrs) was 27.2 ± 18.6%, the inhibition at 0.3 µM (B. cinerea; 72 hrs) was 37 ± 21.8% and the inhibition at 3 µM (B. cinerea; 48 hrs) was 29.7 ± 24.8%. For the same molecule, the inhibition at 3 µM (B. cinerea; 72 hrs) was 40.1 ± 20.6%, the inhibition at 30 µM (B. cinerea; 48 hrs) was 36.9 ± 26.7% and the inhibition at 30 µM (B. cinerea; 72 hrs) was 47.5 ± 27.1%. It also gave an inhibition at 0.3 µM (C. gloeosporioides; 48 hrs) of 63.8 ± 8.6%, an inhibition at 0.3 µM (C. gloeosporioides; 72 hrs) of 32.9 ± 8.3% and an inhibition at 3 µM (C. gloeosporioides; 48 hrs) of 98.3 ± 0.6%. The inhibition at 3 µM (C. gloeosporioides; 72 hrs) was 98.8 ± 0.4%, the inhibition at 30 µM (C. gloeosporioides; 48 hrs) was 99.2 ± 0.8% and the inhibition at 30 µM (C. gloeosporioides; 72 hrs) was 99.7 ± 0.4%. The “Disease severity scores (# disease lesions)” value (“Disease severity scores” below) ([1]; Concentration 625 (unit not given)) was 8.31, the “Disease severity scores” value ([1]; Concentration 1250 (unit not given)) was 1.26 and the “Disease severity scores” value ([1]; Concentration 2500 (unit not given)) was 0.80. It also gave an inhibition at 0.3 µM (F. oxysporum; 48 hrs) of 14.7 ± 4.4%, an inhibition at 0.3 µM (F. oxysporum; 72 hrs) of 4.9 ± 2.3% and an inhibition at 3 µM (F. oxysporum; 48 hrs) of 86.6 ± 2.8%. For the same molecule, the inhibition at 3 µM (F. oxysporum; 72 hrs) was 42.9 ± 3.1%, the inhibition at 30 µM (F. oxysporum; 48 hrs) was 100 ± 0.4% and the inhibition at 30 µM (F. oxysporum; 72 hrs) was 100 ± 0.4%. The inhibition at 0.3 µM (C. acutatum; 48 hrs) was 13.6 ± 5.8%, the inhibition at 0.3 µM (C. acutatum; 72 hrs) was 6 ± 5.1% and the inhibition at 3 µM (C. acutatum; 48 hrs) was 96.8 ± 0.5%. The inhibition at 3 µM (C. acutatum; 72 hrs) was -6.2 ± 3.8%, the inhibition at 30 µM (C. acutatum; 48 hrs) was 100 ± 0.6% and the inhibition at 30 µM (C. acutatum; 72 hrs) was 100 ± 0.2%. The inhibition at 0.3 µM (C. fragariae; 48 hrs) was 55.7 ± 4.5%, the inhibition at 0.3 µM (C. fragariae; 72 hrs) was 32.6 ± 5% and the inhibition at 3 µM (C. fragariae; 48 hrs) was 96.9 ± 0.8%. It also gave an inhibition at 3 µM (C. fragariae; 72 hrs) of 96.8 ± 0.4%, an inhibition at 30 µM (C. fragariae; 48 hrs) of 99.6 ± 0.9% and an inhibition at 30 µM (C. fragariae; 72 hrs) of 100 ± 0.4%.
